Test results as given in patent US7879844B2, “Heterocyclic janus kinase 3 inhibitors” (Astellas Pharma Inc., priority 2005, dated 2011).

The compounds below were run against T1, human JAK3 kinase domain (Homo sapiens, UniProt P52333) (assay: JAK3 inhibition test). Conditions: purified human JAK3 kinase domain; Biotin-Lyn-Substrate-2, 20 μM ATP in substrate solution; absorbance at 450 nm; read-out: IC50 (JAK3 inhibitory activity).
T1 construct: attached to the N-terminal of the 796-1124 (C-terminal) fragment of the human JAK3 protein; His-tag (N); purchased Carna Biosciences, Inc. (Kobe, Japan); host or cells: baculovirus expression system
Format: biochemical
Description: The JAK3 inhibition test was performed as described below according to the method of Okimoto et al.
Purified human JAK3 kinase domain was purchased from Carna Biosciences, Inc. (Kobe, Japan). This is obtained as described below. His-tag (41 kDa) was attached to the N-terminal of the 796-1124 (C-terminal) fragment of the human JAK3 protein (accession number #NM_000215), expressed using baculovirus expression system, and then purified using Ni-NTA affinity column chromatography.
After incubation at ambient temperature for one hour, the plate was washed with a cleaning buffer (50 mM Tris-HCl pH 7.5, 150 mM NaCl, 0.02% Tween 20), and a blocking buffer (a cleaning buffer containing 0.1% bovine serum albumin) was added to the plate. After incubation at ambient temperature for 30 minutes, the blocking buffer was removed, and an HRP-PY-20 solution (obtained by diluting HRP-PY-20 solution with the blocking buffer 500 times) was added. After incubation at ambient temperature for 30 minutes, the plate was washed four times, and a TMB substrate solution (Sigma) was added to the plate. After incubation at ambient temperature for four minutes, 1M sulfuric acid was added to stop the reaction. Enzyme activity was measured as absorbance at 450 nm. The efficacy of the test compound as a JAK3 inhibitor was expressed as an IC50 value.

T1 sequence (P52333 796-1124): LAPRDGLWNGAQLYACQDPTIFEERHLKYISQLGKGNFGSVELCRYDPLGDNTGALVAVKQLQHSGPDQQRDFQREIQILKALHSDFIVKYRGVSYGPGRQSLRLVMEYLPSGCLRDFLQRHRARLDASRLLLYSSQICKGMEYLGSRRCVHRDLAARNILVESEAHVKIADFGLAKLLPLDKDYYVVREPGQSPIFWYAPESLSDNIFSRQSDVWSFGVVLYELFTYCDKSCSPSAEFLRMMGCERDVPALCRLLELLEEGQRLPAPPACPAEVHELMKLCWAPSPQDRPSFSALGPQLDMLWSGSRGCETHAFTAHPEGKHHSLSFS

| SMILES | IC50 [nM] |
| --- | --- |
| CNC(=O)C(=O)Nc1nn([C@H]2[C@@H]3CC4C[C@H]2C[C@@](O)(C4)C3)c2c1cnc1[nH]ccc12 [Example 33, cis-N-{1-[(1R,2R,3S,5s)-5-hydroxyadamantan-2-yl]-1,6-dihydropyrazolo[3,4-d]pyrrolo[2,3-b]pyridine-3-yl}-N′-methylethanediamide] | 2.1 |
| CO[C@H]1CC[C@H](NC(=O)C(=O)Nc2nn([C@H]3[C@@H]4CC5C[C@H]3C[C@@](O)(C5)C4)c3c2cnc2[nH]ccc23)CC1 [Example 434] | 0.86 |
| N#CCCOC12CC3CC(C1)C(n1c(=O)[nH]c4cnc5[nH]ccc5c41)C(C3)C2 (centres unmarked) [Example 405] | 0.65 |
| N#CCCOC12CC3CC(C1)C(n1[nH]c(=O)c4cnc5[nH]ccc5c41)C(C3)C2 (centres unmarked) [Example 498] | 1.3 |
| OCc1noc(-c2cnc3[nH]ccc3c2N[C@H]2C3CC4CC2C[C@@](O)(C4)C3)n1 [Example 484] | 0.31 |
| COCCNC(=O)C(=O)Nc1nn([C@H]2C3CC4CC2C[C@@](O)(C4)C3)c2c1cnc1[nH]ccc12 [Example 32, cis-N-{1-[(1R,2R,3S,5s)-5-hydroxyadamantan-2-yl]-1,6-dihydropyrazolo[3,4-d]pyrrolo[2,3-b]pyridine-3-yl}-N′-(2-methoxyethyl)ethanediamide] | 1.9 |
| CN(CC#N)C(=O)C12CC3CC(C1)C(n1c(=O)[nH]c4cnc5[nH]ccc5c41)C(C3)C2 (centres unmarked) [Example 384] | 0.28 |
| O[C@]12CC3C[C@H](C1)[C@H](Nc1c(-c4nnco4)cnc4[nH]ccc14)[C@@H](C3)C2 (relative stereo) [Example 29, rel-(1s,3R,4R,5S)-4-{[5-(1,3,4-oxazole-2-yl)-1H-pyrrolo[2,3-b]pyridine-4-yl]amino}adamantan-1-ol] | 2.3 |

Next, values leading:

| IC50 [nM] | SMILES |
| --- | --- |
| 0.17 | Nc1nnc(-c2cnc3[nH]ccc3c2N[C@H]2C3CC4CC2C[C@@](O)(C4)C3)s1 [Example 34, (1s,4r)-4-{[5-(5-amino-1,3,4-thiadiazole-2-yl)-1H-pyrrolo[2,3-b]pyridine-4-yl]amino}adamantan-1-ol] |
| 2.3 | N#CC12CC3CC(C1)C(Nc1c(C(N)=O)cnc4[nH]cnc14)C(C3)C2 (centres unmarked) [Example 426] |
| 0.69 | N#Cc1ccc(N2[C@@H]3CC[C@H]2C[C@H](Nc2c(C(N)=O)cnc4[nH]ccc24)C3)nc1 [Example 143] |
| 4.4 | NC(=O)c1cnc2[nH]ccc2c1N[C@@H]1C[C@H]2CC[C@@H]1C2 [Example 133] |
| 1.2 | O=C(CO)c1cnc2[nH]ccc2c1N[C@H]1C2CC3CC1C[C@@](O)(C3)C2 [Example 379] |
| 0.33 | N#Cc1ccc(N2[C@@H]3CC[C@H]2C[C@H](Nc2c(C(N)=O)cnc4[nH]ccc24)C3)nn1 [Example 543] |
